According to PubChem BioAssay AID248 (DTP/NCI, 2004):
“And” between values parts separate entries of the source, which are not always exact repeats. Identical values can stand only once. Toxic doses and inconclusive results are not listed. No stated cut-off is given here; in the data, active means T/C of 150% or more; inactive means T/C below 125%.

Test system: L1210 leukemia ip in BDF1 mice, survival T/C
Test: NCI In Vivo Anticancer Drug Screen. Data for tumor model L1210 Leukemia (intraperitoneal) in B6D2F1 (BDF1) mice
Settings: endpoint: mean survival time, higher = longer survival
Outline: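 Tumor cells were implanted, animals were treated, and survival was followed. The result divides the treated measurement by the vehicle-control measurement.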

[1] = dose: 100.0 mg/kg/injection, schedule: Q01DX001 (ip), vehicle: saline
[2] = dose: 200.0 mg/kg/injection, schedule: Q01DX001 (ip), vehicle: saline
[3] = dose: 400.0 mg/kg/injection, schedule: Q01DX001 (ip), vehicle: carboxymethylcellulose (CMC)
[4] = dose: 100.0 mg/kg/injection, schedule: Q01DX009 (ip), vehicle: saline with Tween-80
[5] = dose: 200.0 mg/kg/injection, schedule: Q01DX009 (ip), vehicle: saline with Tween-80
[6] = dose: 400.0 mg/kg/injection, schedule: Q01DX009 (ip), vehicle: saline with Tween-80
[7] = dose: 25.0 mg/kg/injection, schedule: Q01DX009 (ip), vehicle: Klucel (hydroxypropylcellulose) (HPC)
[8] = dose: 50.0 mg/kg/injection, schedule: Q01DX009 (ip), vehicle: Klucel (hydroxypropylcellulose) (HPC)
[9] = dose: 100.0 mg/kg/injection, schedule: Q01DX009 (ip), vehicle: Klucel (hydroxypropylcellulose) (HPC)
[10] = dose: 100.0 mg/kg/injection, schedule: Q04DX003 (ip), vehicle: saline with Tween-80
[11] = dose: 200.0 mg/kg/injection, schedule: Q04DX003 (ip), vehicle: saline with Tween-80
[12] = dose: 100.0 mg/kg/injection, schedule: Q01DX009 (ip), vehicle: other
[13] = dose: 200.0 mg/kg/injection, schedule: Q01DX009 (ip), vehicle: other
[14] = dose: 400.0 mg/kg/injection, schedule: Q01DX009 (ip), vehicle: other
[15] = dose: 400.0 mg/kg/injection, schedule: Q04DX003 (ip), vehicle: saline with Tween-80
[16] = dose: 100.0 mg/kg/injection, schedule: Q04DX002 (ip), vehicle: Klucel (hydroxypropylcellulose) (HPC)
[17] = dose: 200.0 mg/kg/injection, schedule: Q04DX002 (ip), vehicle: Klucel (hydroxypropylcellulose) (HPC)
[18] = dose: 400.0 mg/kg/injection, schedule: Q04DX002 (ip), vehicle: Klucel (hydroxypropylcellulose) (HPC)
[19] = dose: 400.0 mg/kg/injection, schedule: Q01DX001 (ip), vehicle: saline
[20] = dose: 100.0 mg/kg/injection, schedule: Q04DX003 (ip), vehicle: Klucel (hydroxypropylcellulose) (HPC)
[21] = dose: 200.0 mg/kg/injection, schedule: Q04DX003 (ip), vehicle: Klucel (hydroxypropylcellulose) (HPC)
[22] = dose: 400.0 mg/kg/injection, schedule: Q04DX003 (ip), vehicle: Klucel (hydroxypropylcellulose) (HPC)

Measured: T/C

CC(C)(C)COC(=O)C(C)(C)CC(C)(C)C
inactive: [1] 93 % of control | dose: 187.0 mg/kg/injection, schedule: Q01DX001 (ip), vehicle: carboxymethylcellulose (CMC) 92 % of control | [2] 102 % of control | dose: 267.0 mg/kg/injection, schedule: Q01DX001 (ip), vehicle: carboxymethylcellulose (CMC) 97 % of control | [3] 96 % of control | dose: 600.0 mg/kg/injection, schedule: Q01DX001 (ip), vehicle: carboxymethylcellulose (CMC) 96 % of control

O=C(Nc1cccc(Cl)c1)Nc1ccccc1Cl
inactive: [4] 100 % of control | [5] 97 % of control | [6] 96 % of control

C/C=C/CC1C(=O)N(c2ccccc2)N(c2ccccc2)C1=O
inactive: [7] 106 % of control | [8] 95 % of control | [9] 97 % of control

O=[N+]([O-])c1ccc(NC2CCCCC2)c2c1no[n+]2[O-]
inactive: dose: 50.0 mg/kg/injection, schedule: Q04DX003 (ip), vehicle: saline with Tween-80 100 % of control | [10] 100 % of control | [11] 118 % of control

Nc1cccc(OCCc2ccccc2)c1
inactive: dose: 100.0 mg/kg/injection, schedule: Q01DX001 (ip), vehicle: saline with Tween-80 96 % of control | dose: 200.0 mg/kg/injection, schedule: Q01DX001 (ip), vehicle: saline with Tween-80 94 % of control | dose: 400.0 mg/kg/injection, schedule: Q01DX001 (ip), vehicle: saline with Tween-80 96 % of control

C/C=C(\C)C(=O)Nc1cccc(OC(=O)NC)c1
inactive: [4] 91 % of control | [5] 88 % of control | [6] 91 % of control

O=C(c1ccccc1)C(Nc1ccccn1)c1ccccc1 (stereo unspecified)
inactive: dose: 75.0 mg/kg/injection, schedule: Q01DX001 (ip), vehicle: carboxymethylcellulose (CMC) 96 % of control | dose: 150.0 mg/kg/injection, schedule: Q01DX001 (ip), vehicle: carboxymethylcellulose (CMC) 94 % of control | dose: 300.0 mg/kg/injection, schedule: Q01DX001 (ip), vehicle: carboxymethylcellulose (CMC) 94 % of control

O=c1[nH]c(=O)c2ccccc2o1
inactive: dose: 2.5 mg/kg/injection, schedule: Q04DX003 (ip), vehicle: saline 100 % of control | dose: 5.0 mg/kg/injection, schedule: Q04DX003 (ip), vehicle: saline 105 % of control | dose: 10.0 mg/kg/injection, schedule: Q04DX003 (ip), vehicle: saline 100 % of control | [4] 105 % of control

CSc1ccc(NC(=O)Nc2cc(C)ccc2N=Nc2ccc(C)cc2)cc1
inactive: [12] 89 % of control | [13] 102 % of control | [14] 96 % of control

CC1Oc2ccccc2OC1C(=O)NN (stereo unspecified)
inactive: [10] 95 % of control | [11] 97 % of control | [15] 106 % of control

CCCCCOC(=O)COc1ccc(Cl)cc1
inactive: [16] 98 % of control | [17] 98 % of control | [18] 103 % of control

COC1OCC(O)C(N)C1O (stereo unspecified)
inactive: [1] 102 % of control and 95 % of control | [2] 102 % of control and 104 % of control and 106 % of control | [19] 87 % of control and 98 % of control and 92 % of control

c1cc(Nc2ccncc2)ccn1
inactive: dose: 6.25 mg/kg/injection, schedule: Q01DX009 (ip), vehicle: saline with Tween-80 97 % of control | dose: 12.5 mg/kg/injection, schedule: Q01DX009 (ip), vehicle: saline with Tween-80 95 % of control | dose: 25.0 mg/kg/injection, schedule: Q01DX009 (ip), vehicle: saline with Tween-80 99 % of control | dose: 25.0 mg/kg/injection, schedule: Q04DX003 (ip), vehicle: saline with Tween-80 97 % of control

CC(=O)OCC(OC(C)=O)C(OC(C)=O)C(C#N)OC(C)=O (stereo unspecified)
inactive: dose: 12.5 mg/kg/injection, schedule: Q01DX009 (ip), vehicle: Klucel (hydroxypropylcellulose) (HPC) 95 % of control | dose: 12.5 mg/kg/injection, schedule: Q04DX003 (ip), vehicle: Klucel (hydroxypropylcellulose) (HPC) 102 % of control | [7] 95 % of control | dose: 25.0 mg/kg/injection, schedule: Q04DX003 (ip), vehicle: Klucel (hydroxypropylcellulose) (HPC) 96 % of control | [8] 102 % of control | dose: 50.0 mg/kg/injection, schedule: Q04DX003 (ip), vehicle: Klucel (hydroxypropylcellulose) (HPC) 102 % of control | [10] 102 % of control | [11] 102 % of control

CCCCOC(=N)Cc1cc(OC)c(OC)c(OC)c1
inactive: dose: 75.0 mg/kg/injection, schedule: Q04DX003 (ip), vehicle: saline with Tween-80 98 % of control | dose: 150.0 mg/kg/injection, schedule: Q04DX003 (ip), vehicle: saline with Tween-80 92 % of control | dose: 300.0 mg/kg/injection, schedule: Q04DX003 (ip), vehicle: saline with Tween-80 98 % of control

CC1C(=O)C2CCCCC2C1=O (stereo unspecified)
inactive: [1] 96 % of control | [2] 96 % of control | [19] 100 % of control

Clc1ccc(CSc2nc3ccccc3[nH]2)cc1
inactive: [9] 94 % of control | dose: 200.0 mg/kg/injection, schedule: Q01DX009 (ip), vehicle: Klucel (hydroxypropylcellulose) (HPC) 103 % of control | dose: 400.0 mg/kg/injection, schedule: Q01DX009 (ip), vehicle: Klucel (hydroxypropylcellulose) (HPC) 103 % of control

CCCCCC(=O)OC1CCCCC1C1CCCCC1 (stereo unspecified)
inactive: dose: 50.0 mg/kg/injection, schedule: Q01DX001 (ip), vehicle: carboxymethylcellulose (CMC) 96 % of control | dose: 100.0 mg/kg/injection, schedule: Q01DX001 (ip), vehicle: carboxymethylcellulose (CMC) 94 % of control | dose: 200.0 mg/kg/injection, schedule: Q01DX001 (ip), vehicle: carboxymethylcellulose (CMC) 100 % of control | [3] 96 % of control

Cc1ccc([Si](C)(C)[Si](C)C)cc1
inactive: [20] 98 % of control | [21] 102 % of control | [22] 105 % of control

CCCCCCCCCOc1ccc2ccccc2c1
inactive: [10] 102 % of control | [11] 97 % of control | [15] 92 % of control

O=C(COc1ccccc1)Oc1c(Cl)cc(Cl)cc1Cl
inactive: [20] 98 % of control | [21] 100 % of control | [22] 100 % of control

COc1ccc(N2C(=O)CC(Sc3ccccc3N)C2=O)cc1 (stereo unspecified)
inactive: [12] 102 % of control | dose: 100.0 mg/kg/injection, schedule: Q04DX003 (ip), vehicle: saline 94 % of control | [13] 91 % of control | dose: 200.0 mg/kg/injection, schedule: Q04DX003 (ip), vehicle: saline 90 % of control | [14] 91 % of control | dose: 400.0 mg/kg/injection, schedule: Q04DX003 (ip), vehicle: saline 90 % of control

O=C(O)c1cc(Cl)cc(I)c1Br
inactive: dose: 75.0 mg/kg/injection, schedule: Q04DX002 (ip), vehicle: Klucel (hydroxypropylcellulose) (HPC) 100 % of control | [16] 94 % of control | dose: 150.0 mg/kg/injection, schedule: Q04DX002 (ip), vehicle: Klucel (hydroxypropylcellulose) (HPC) 96 % of control | [17] 105 % of control | dose: 300.0 mg/kg/injection, schedule: Q04DX002 (ip), vehicle: Klucel (hydroxypropylcellulose) (HPC) 100 % of control | [18] 105 % of control
